Calls of active or inactive are those of the source. No cut-off for these calls is given here.
What was measured:
[1] = molecular target: T1, von Hippel-Lindau disease tumor suppressor/Histone-lysine N-methyltransferase, H3 lysine-79 specific (Homo sapiens, UniProt Q8TEK3+P40337); test: PROTAC activity at VHL/DOTIL in mixed-lineage leukemia rearranged (MLL-r) human THP-1 cells assessed as induction of DOT1L degradation by measuring fold change in DOTIL protein level at 0.3 uM incubated for 24 hrs by western blot analysis relative to control; format: cell-based
T1 sequence (P40337 whole entry, looked up): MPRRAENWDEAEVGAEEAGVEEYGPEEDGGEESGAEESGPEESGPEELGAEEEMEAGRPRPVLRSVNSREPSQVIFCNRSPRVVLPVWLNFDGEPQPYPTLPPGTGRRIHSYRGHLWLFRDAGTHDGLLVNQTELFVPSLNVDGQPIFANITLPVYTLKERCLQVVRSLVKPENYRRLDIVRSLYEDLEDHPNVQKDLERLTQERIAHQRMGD
T1 sequence (Q8TEK3 whole entry, looked up): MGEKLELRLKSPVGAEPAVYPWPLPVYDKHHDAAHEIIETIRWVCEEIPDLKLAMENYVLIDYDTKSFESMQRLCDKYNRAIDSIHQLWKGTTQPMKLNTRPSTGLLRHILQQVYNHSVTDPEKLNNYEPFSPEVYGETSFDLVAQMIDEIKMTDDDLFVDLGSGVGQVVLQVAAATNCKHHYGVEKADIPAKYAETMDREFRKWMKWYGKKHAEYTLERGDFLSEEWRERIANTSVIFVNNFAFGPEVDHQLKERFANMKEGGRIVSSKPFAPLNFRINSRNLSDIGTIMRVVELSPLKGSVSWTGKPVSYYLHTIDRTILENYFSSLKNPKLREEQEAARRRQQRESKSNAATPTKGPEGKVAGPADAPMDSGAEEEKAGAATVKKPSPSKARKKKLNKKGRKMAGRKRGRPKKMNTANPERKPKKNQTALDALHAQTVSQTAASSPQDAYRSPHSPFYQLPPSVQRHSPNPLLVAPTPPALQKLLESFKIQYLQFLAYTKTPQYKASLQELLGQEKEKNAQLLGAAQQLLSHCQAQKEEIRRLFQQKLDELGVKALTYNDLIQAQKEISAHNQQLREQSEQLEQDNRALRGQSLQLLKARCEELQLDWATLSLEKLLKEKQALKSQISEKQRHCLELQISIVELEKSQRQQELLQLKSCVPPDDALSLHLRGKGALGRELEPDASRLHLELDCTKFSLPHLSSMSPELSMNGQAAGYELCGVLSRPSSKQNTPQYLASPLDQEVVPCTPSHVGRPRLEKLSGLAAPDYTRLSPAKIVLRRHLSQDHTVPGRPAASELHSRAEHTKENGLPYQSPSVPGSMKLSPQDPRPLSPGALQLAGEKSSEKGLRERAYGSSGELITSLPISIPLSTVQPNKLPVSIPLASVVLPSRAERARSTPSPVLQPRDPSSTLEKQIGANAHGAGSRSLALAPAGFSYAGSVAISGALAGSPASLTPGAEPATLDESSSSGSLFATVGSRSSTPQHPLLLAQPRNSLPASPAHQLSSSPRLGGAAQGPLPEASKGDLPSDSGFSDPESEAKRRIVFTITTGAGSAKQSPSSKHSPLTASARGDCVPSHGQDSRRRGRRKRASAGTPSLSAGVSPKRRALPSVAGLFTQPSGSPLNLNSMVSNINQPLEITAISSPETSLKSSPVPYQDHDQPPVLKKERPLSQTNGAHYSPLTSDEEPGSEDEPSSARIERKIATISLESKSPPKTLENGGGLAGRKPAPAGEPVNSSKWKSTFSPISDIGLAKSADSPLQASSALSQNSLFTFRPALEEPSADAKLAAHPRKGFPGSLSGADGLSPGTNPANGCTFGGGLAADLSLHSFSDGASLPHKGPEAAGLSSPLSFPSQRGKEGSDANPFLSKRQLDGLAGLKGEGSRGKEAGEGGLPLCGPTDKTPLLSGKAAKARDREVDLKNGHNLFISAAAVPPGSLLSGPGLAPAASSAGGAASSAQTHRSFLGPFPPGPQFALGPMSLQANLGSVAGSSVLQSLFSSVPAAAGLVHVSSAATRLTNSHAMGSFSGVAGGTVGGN

[2] = molecular target: T1, von Hippel-Lindau disease tumor suppressor/Histone-lysine N-methyltransferase, H3 lysine-79 specific; test: PROTAC activity at VHL/DOTIL in mixed-lineage leukemia rearranged (MLL-r) human THP-1 cells assessed as induction of DOT1L degradation by measuring fold change in DOTIL protein level at 3 uM incubated for 24 hrs by western blot analysis relative to control; format: cell-based
[3] = molecular target: Histone-lysine N-methyltransferase, H3 lysine-79 specific (Homo sapiens) (UniProt Q8TEK3); test: Inhibition of human DOT1L using oligonucleosomes and SAM as substrate at 4.6 nM by radiometric Hotspot assay
Histone-lysine N-methyltransferase, H3 lysine-79 specific (Homo sapiens), sequence (Q8TEK3 whole entry, looked up): as above

[4] = system: MOLM-13; test: Antiproliferative activity against mixed-lineage leukemia rearranged (MLL-r) human MOLM-13 cells assessed as inhibition of cell growth incubated for 7 days by CCK-8 assay; format: functional, cell-based; conditions: time 7.0 day
[5] = system: MV4-11; test: Antiproliferative activity against mixed-lineage leukemia rearranged (MLL-r) human MV4-11 cells assessed as inhibition of cell growth incubated for 7 days by CCK-8 assay; format: functional; conditions: time 7.0 day
[6] = molecular target: Histone-lysine N-methyltransferase, H3 lysine-79 specific (Homo sapiens) (UniProt Q8TEK3); test: Inhibition of human DOT1L using oligonucleosomes and SAM as substrate at 1.1 to 3.3 uM by radiometric Hotspot assay; conditions: dose 1.1-3.3 µM

Compound | fold change (FC) [1] | fold change (FC) [2] | inhibition [3] | inhibition [6] | Activity [4] | Activity [5]
Cc1ncsc1-c1ccc([C@H](CC(=O)NCCCNC(=O)COc2nc(N)nc(Nc3cc(S(N)(=O)=O)ccc3N[C@@H](c3cccc4c3OC(F)(F)O4)c3ncccc3Cl)n2)NC(=O)[C@@H]2C[C@@H](O)CN2C(=O)[C@@H](NC(=O)C2(F)CC2)C(C)(C)C)cc1 | 0.72 | 0.28 |  |  |  | 
Cc1ncsc1-c1ccc([C@H](CC(=O)NCCCCCCNC(=O)COc2nc(N)nc(Nc3cc(S(N)(=O)=O)ccc3N[C@@H](c3cccc4c3OC(F)(F)O4)c3ncccc3Cl)n2)NC(=O)[C@@H]2C[C@H](O)CN2C(=O)[C@@H](NC(=O)C2(F)CC2)C(C)(C)C)cc1 | 0.99 | 1.05 | > 95% |  | inactive | Active
Cc1ncsc1-c1ccc([C@H](CC(=O)NCCCCCCCNC(=O)COc2nc(N)nc(Nc3cc(S(N)(=O)=O)ccc3N[C@@H](c3cccc4c3OC(F)(F)O4)c3ncccc3Cl)n2)NC(=O)[C@@H]2C[C@@H](O)CN2C(=O)[C@@H](NC(=O)C2(F)CC2)C(C)(C)C)cc1 | 0.36 | 0.33 |  |  |  | 
Cc1ncsc1-c1ccc([C@H](CC(=O)NCCCCCNC(=O)COc2nc(N)nc(Nc3cc(S(N)(=O)=O)ccc3N[C@@H](c3cccc4c3OC(F)(F)O4)c3ncccc3Cl)n2)NC(=O)[C@@H]2C[C@@H](O)CN2C(=O)[C@@H](NC(=O)C2(F)CC2)C(C)(C)C)cc1 | 0.9 | 0.36 |  |  |  | 
COc1nc(N)nc(Nc2cc(S(N)(=O)=O)ccc2N[C@@H](c2cccc3c2OC(F)(F)O3)c2ncccc2Cl)n1 | 1.29 | 1.57 |  |  | Active; Reduced Potency In Molm-13 Cells Relative To Mv4-11 Cells Observed | 
Cc1ncsc1-c1ccc([C@H](CC(=O)NCCCCNC(=O)COc2nc(N)nc(Nc3cc(S(N)(=O)=O)ccc3N[C@@H](c3cccc4c3OC(F)(F)O4)c3ncccc3Cl)n2)NC(=O)[C@@H]2C[C@@H](O)CN2C(=O)[C@@H](NC(=O)C2(F)CC2)C(C)(C)C)cc1 | 0.58 | 0.6 |  |  |  | 
Cc1ncsc1-c1ccc([C@H](CC(=O)NCCCCCCCCNC(=O)COc2nc(N)nc(Nc3cc(S(N)(=O)=O)ccc3N[C@@H](c3cccc4c3OC(F)(F)O4)c3ncccc3Cl)n2)NC(=O)[C@@H]2C[C@@H](O)CN2C(=O)[C@@H](NC(=O)C2(F)CC2)C(C)(C)C)cc1 | 0.52 | 0.56 |  |  |  | 
CC(=O)Nc1nc(Nc2cc(S(=O)(=O)NC(C)=O)ccc2N(C(C)=O)[C@@H](c2cccc3c2OC(F)(F)O3)c2ncccc2Cl)nc(OCC(=O)NCCCCCCNC(=O)C[C@H](NC(=O)C2CC(O)CN2C(=O)[C@@H](NC(=O)C2(F)CC2)C(C)(C)C)c2ccc(-c3scnc3C)cc2)n1 (single isomer, unassigned) | 1.1 | 1.11 |  | > 50% | inactive | inactive

More lines, main results first:

fold change (FC) [1] | fold change (FC) [2] | inhibition [3] | inhibition [6] | Compound | Activity [4] | Activity [5]
1.52 | 1.11 |  |  | Cc1ncsc1-c1ccc(CNC(=O)[C@@H]2C[C@@H](O)CN2C(=O)[C@@H](NC(=O)CCCCCNC(=O)COc2nc(N)nc(Nc3cc(S(N)(=O)=O)ccc3N[C@@H](c3cccc4c3OC(F)(F)O4)c3ncccc3Cl)n2)C(C)(C)C)cc1 |  | 
1.01 | 0.83 |  |  | Cc1ncsc1-c1ccc(CNC(=O)[C@@H]2C[C@@H](O)CN2C(=O)[C@@H](NC(=O)CCCCCCCNC(=O)COc2nc(N)nc(Nc3cc(S(N)(=O)=O)ccc3N[C@@H](c3cccc4c3OC(F)(F)O4)c3ncccc3Cl)n2)C(C)(C)C)cc1 |  | 
0.99 | 1.2 |  |  | Cc1ncsc1-c1ccc(CNC(=O)[C@@H]2C[C@@H](O)CN2C(=O)[C@@H](NC(=O)CCCNC(=O)COc2nc(N)nc(Nc3cc(S(N)(=O)=O)ccc3N[C@@H](c3cccc4c3OC(F)(F)O4)c3ncccc3Cl)n2)C(C)(C)C)cc1 |  | 
0.99 | 1.17 |  |  | Cc1ncsc1-c1ccc(CNC(=O)[C@@H]2C[C@@H](O)CN2C(=O)[C@@H](NC(=O)CCCCCCNC(=O)COc2nc(N)nc(Nc3cc(S(N)(=O)=O)ccc3N[C@@H](c3cccc4c3OC(F)(F)O4)c3ncccc3Cl)n2)C(C)(C)C)cc1 |  | 
0.99 | 1.17 |  |  | Cc1ncsc1-c1ccc(CNC(=O)[C@@H]2C[C@@H](O)CN2C(=O)[C@@H](NC(=O)CCCCNC(=O)COc2nc(N)nc(Nc3cc(S(N)(=O)=O)ccc3N[C@@H](c3cccc4c3OC(F)(F)O4)c3ncccc3Cl)n2)C(C)(C)C)cc1 |  | 
1.07 | 1.03 |  |  | CC(C)N(C[C@H]1O[C@@H](n2cnc3c(N)ncnc32)[C@H](O)[C@@H]1O)[C@H]1C[C@@H](CCc2nc3cc(C(C)(C)C)ccc3[nH]2)C1 | Active; Reduced Potency In Molm-13 Cells Relative To Mv4-11 Cells Observed | 
0.83 | 0.55 |  |  | Cc1ncsc1-c1ccc([C@H](CC(=O)NCCNC(=O)COc2nc(N)nc(Nc3cc(S(N)(=O)=O)ccc3N[C@@H](c3cccc4c3OC(F)(F)O4)c3ncccc3Cl)n2)NC(=O)[C@@H]2C[C@@H](O)CN2C(=O)[C@@H](NC(=O)C2(F)CC2)C(C)(C)C)cc1 |  | 
0.82 | 0.95 |  |  | Cc1ncsc1-c1ccc(CNC(=O)[C@@H]2C[C@@H](O)CN2C(=O)[C@@H](NC(=O)CCNC(=O)COc2nc(N)nc(Nc3cc(S(N)(=O)=O)ccc3N[C@@H](c3cccc4c3OC(F)(F)O4)c3ncccc3Cl)n2)C(C)(C)C)cc1 |  | 

Source: ChEMBL document CHEMBL6182889, “Discovery of the first-in-class DOT1L PROTAC degrader” (Eur J Med Chem, 2025)
